How the values were obtained:
PC-3 [1] = test: Cytotoxicity against human PC3 cells after 48 hrs by MTT assay; format: functional, cell-based; conditions: PC-3, 48 h
HepG2 [2] = test: Cytotoxicity against human HepG2 cells after 48 hrs by MTT assay; format: functional, cell-based; conditions: HepG2, 48 h
A549 [3] = test: Cytotoxicity against human A549 cells after 48 hrs by MTT assay; format: functional, cell-based; conditions: A549, 48 h
MCF7 = test: Cytotoxicity against human MCF7 cells after 48 hrs by MTT assay; format: functional, cell-based; conditions: MCF7, 48 h
PC-3 [4] = test: Potency index, ratio of IC50 for fluorouracil to IC50 for test compound for human PC3 cells; format: functional
HepG2 [5] = test: Potency index, ratio of IC50 for fluorouracil to IC50 for test compound for human HepG2 cells; format: functional
A549 [6] = test: Potency index, ratio of IC50 for fluorouracil to IC50 for test compound for human A549 cells; format: functional
PC-3 [7] = test: Cell cycle arrest in human PC3 cells assessed as accumulation at Sub-G1 phase at 2 uM after 48 hrs by flow cytometry (Rvb=0.37%); format: functional
PC-3 [8] = test: Cell cycle arrest in human PC3 cells assessed as accumulation at G0/G1 phase at 2 uM after 48 hrs by flow cytometry (Rvb=60.55%); format: functional
PC-3 [9] = test: Cell cycle arrest in human PC3 cells assessed as accumulation at S phase at 2 uM after 48 hrs by flow cytometry (Rvb=21.10%); format: functional
PC-3 [10] = test: Cell cycle arrest in human PC3 cells assessed as accumulation at G2/M phase at 2 uM after 48 hrs by flow cytometry (Rvb=16.72%); format: functional
PC-3 [11] = test: Cell cycle arrest in human PC3 cells assessed as accumulation at Sub-G1 phase at 4 uM after 48 hrs by flow cytometry (Rvb=0.37%); format: functional
PC-3 [12] = test: Cell cycle arrest in human PC3 cells assessed as accumulation at G0/G1 phase at 4 uM after 48 hrs by flow cytometry (Rvb=60.55%); format: functional
PC-3 [13] = test: Cell cycle arrest in human PC3 cells assessed as accumulation at S phase at 4 uM after 48 hrs by flow cytometry (Rvb=21.10%); format: functional
PC-3 [14] = test: Cell cycle arrest in human PC3 cells assessed as accumulation at G2/M phase at 4 uM after 48 hrs by flow cytometry (Rvb=16.72%); format: functional
PC-3 [15] = test: Cell cycle arrest in human PC3 cells assessed as accumulation at Sub-G1 phase at 8 uM after 48 hrs by flow cytometry (Rvb=0.37%); format: functional
PC-3 [16] = test: Cell cycle arrest in human PC3 cells assessed as accumulation at G0/G1 phase at 8 uM after 48 hrs by flow cytometry (Rvb=60.55%); format: functional
PC-3 [17] = test: Cell cycle arrest in human PC3 cells assessed as accumulation at S phase at 8 uM after 48 hrs by flow cytometry (Rvb=21.10%); format: functional
PC-3 [18] = test: Cell cycle arrest in human PC3 cells assessed as accumulation at G2/M phase at 8 uM after 48 hrs by flow cytometry (Rvb=16.72%); format: functional
PC-3 [19] = test: Cell cycle arrest in human PC3 cells assessed as accumulation at G2/M phase after 48 hrs by flow cytometry; format: functional, cell-based

| SMILES | IC50 (PC-3 [1]) [µM] | IC50 (HepG2 [2]) [µM] | IC50 (A549 [3]) [µM] | IC50 (MCF7) [µM] | other results |
| --- | --- | --- | --- | --- | --- |
| COc1cc(-c2nnc3n2NC(c2ccco2)C(C(=O)c2ccc([N+](=O)[O-])cc2)S3)cc(OC)c1OC (centres undefined) | 27.9 | 87.8 | > 100 | > 100 | Ratio IC50 (PC-3 [4]): 0.62 |
| COc1cc(-c2nnc3n2NC(c2ccco2)C(C(=O)c2cccc4ccccc24)S3)cc(OC)c1OC (centres undefined) | > 100 | 33.9 | > 100 | > 100 |  |
| COc1cccc(C(=O)C2Sc3nnc(-c4cc(OC)c(OC)c(OC)c4)n3NC2c2ccco2)c1 (centres undefined) | 84.6 | > 100 | > 100 | > 100 |  |
| COc1cc(-c2nnc3n2NC(c2cccs2)C(C(=O)c2ccc(Cl)cc2)S3)cc(OC)c1OC (centres undefined) | 32.5 | 13.2 | 20.1 | 42.8 |  |
| COc1cc(-c2nnc3n2NC(c2ccco2)C(C(=O)c2ccc(F)cc2)S3)cc(OC)c1OC (centres undefined) | 27.7 | > 100 | 53.7 | > 100 | Ratio IC50 (PC-3 [4]): 0.62 |
| COc1ccc(C(=O)C2Sc3nnc(-c4cc(OC)c(OC)c(OC)c4)n3NC2c2cccs2)cc1 (centres undefined) | 95.9 | 68 | > 100 | 49.5 |  |
| COc1cc(-c2nnc3n2NC(c2ccco2)C(C(=O)c2ccccc2C)S3)cc(OC)c1OC (centres undefined) | 88.4 | 63 | 80 | 69.9 |  |
| COc1cc(-c2nnc3n2NC(c2ccco2)C(C(=O)c2ccc(O)cc2)S3)cc(OC)c1OC (centres undefined) | 38.3 | > 100 | 93.4 | 88.9 |  |
| COc1cc(-c2nnc3n2NC(c2ccco2)C(C(=O)c2ccc(Cl)cc2)S3)cc(OC)c1OC (centres undefined) | 67.8 | 78.6 | 51.4 | > 100 |  |
| COc1cc(-c2nnc3n2NC(c2ccco2)C(C(=O)c2ccccc2)S3)cc(OC)c1OC (centres undefined) | 64.3 | 90.9 | 33.4 | 39.8 |  |
| COc1cc(-c2nnc3n2NC(c2ccco2)C(C(=O)c2ccc(C)cc2)S3)cc(OC)c1OC (centres undefined) | 7.5 | 17.4 | > 100 | > 100 | Ratio IC50 (PC-3 [4]): 3; Ratio IC50 (HepG2 [5]): 2.7 |
| COc1cc(-c2nnc3n2NC(c2ccco2)C(C(=O)C2CC2)S3)cc(OC)c1OC (centres undefined) | 95.2 | > 100 | > 100 | > 100 |  |
| COc1cc(-c2nnc3n2NC(c2ccco2)C(C(=O)c2cccc(Br)c2)S3)cc(OC)c1OC (centres undefined) | 63.9 | > 100 | 36.9 | 91.8 |  |
| COc1cc(-c2nnc3n2NC(c2ccco2)C(C(=O)c2ccc(C(F)(F)F)cc2)S3)cc(OC)c1OC (centres undefined) | 77.5 | > 100 | 37.1 | 33.6 |  |
| COc1cc(C(=O)C2Sc3nnc(-c4cc(OC)c(OC)c(OC)c4)n3NC2c2ccco2)cc(OC)c1OC (centres undefined) | 52.2 | > 100 | 48.3 | > 100 |  |
| COc1cc(-c2nnc3n2NC(c2ccco2)C(C(=O)c2ccc(Br)cc2)S3)cc(OC)c1OC (centres undefined) | 36.4 | > 100 | 42.1 | > 100 | Ratio IC50 (PC-3 [4]): 0.62 |
| COc1cc(C(=O)C2Sc3nnc(-c4cc(OC)c(OC)c(OC)c4)n3NC2c2cccs2)cc(OC)c1OC (centres undefined) | > 100 | > 100 | > 100 | 71 |  |
| COc1cc(-c2nnc3n2NC(c2ccco2)C(C(=O)c2ccccc2F)S3)cc(OC)c1OC (centres undefined) | > 100 | > 100 | 78.7 | 94.8 |  |
| COc1cc(-c2nnc3n2NC(c2cccs2)C(C(=O)c2ccccc2)S3)cc(OC)c1OC (centres undefined) | 86.3 | > 100 | 69.4 | > 100 |  |
| COc1cc(-c2nnc3n2NC(c2ccco2)C(C(=O)c2ccco2)S3)cc(OC)c1OC (centres undefined) | 58.3 | > 100 | 68.7 | > 100 |  |
| COc1ccc(C(=O)C2Sc3nnc(-c4cc(OC)c(OC)c(OC)c4)n3NC2c2ccco2)cc1 (centres undefined) | > 100 | > 100 | > 100 | > 100 |  |
| O=c1[nH]cc(F)c(=O)[nH]1 [FLUOROURACIL] | 22.6 |  | 22.3 | 19.4 |  |
| COc1cc(-c2nnc3n2NC(c2ccco2)C(C(=O)c2ccc(-c4ccccc4)cc2)S3)cc(OC)c1OC (centres undefined) | 45.9 | > 100 | > 100 | > 100 |  |
| COc1cc(-c2nnc3n2NC(c2cccs2)C(C(=O)c2ccc(C)cc2)S3)cc(OC)c1OC (centres undefined) | 5.09 | 3.7 | 12.7 | 28.4 | Ratio IC50 (PC-3 [4]): 3; Ratio IC50 (HepG2 [5]): 11; Ratio IC50 (A549 [6]): 2; Activity (PC-3 [7]): 0.92%; Activity (PC-3 [8]): 33.85%; Activity (PC-3 [9]): 15.52%; Activity (PC-3 [10]): 47.22%; Activity (PC-3 [11]): 0.3%; Activity (PC-3 [12]): 29.4%; Activity (PC-3 [13]): 12.53%; Activity (PC-3 [14]): 57%; Activity (PC-3 [15]): 0.38%; Activity (PC-3 [16]): 23.69%; Activity (PC-3 [17]): 9.79%; Activity (PC-3 [18]): 65.1%; Activity (PC-3 [19]): Dose-dependent effect |
| COc1cc(-c2nnc3n2NC(c2ccco2)C(C(=O)c2cccs2)S3)cc(OC)c1OC (centres undefined) | 46.2 | 64.1 | 78.7 | > 100 |  |
| COc1cc(-c2nnc3n2NC(c2ccco2)C(C(=O)c2ccc(F)c(F)c2)S3)cc(OC)c1OC (centres undefined) | 36 | 52.4 | 93.7 | 73.2 | Ratio IC50 (PC-3 [4]): 0.62 |
| COc1cc(-c2nnc3n2NC(c2cccs2)C(C(=O)c2ccc(F)cc2)S3)cc(OC)c1OC (centres undefined) | 27.4 | 54.2 | 45 | 43.6 |  |

— ChEMBL document CHEMBL3632555, “Design, synthesis and biological evaluation of novel 1,2,4-triazolo [3,4-b][1,3,4] thiadiazines bearing furan and thiophene nucleus” (Eur J Med Chem, 2015)
